Results from ChEMBL document CHEMBL5030517, “6-Halopyridylmethylidene Penicillin-Based Sulfones Efficiently Inactivate the Natural Resistance of Pseudomonas aeruginosa to β-Lactam Antibiotics” (J Med Chem, 2021).
≈ marks a conversion by molar mass, not a printed value. Calls of active or inactive are those of the source. The calls are words filed in the database; no cut-off is given here.

How the values were obtained:
[1] = Inhibition beta lactamase PDC-1 in Pseudomonas aeruginosa PAO1 using nitrocefin as substrate measured by 96 well microtitre plate
[2] = tested on: Pseudomonas aeruginosa PAO1; experiment: Inhibition of beta-lactamase activity in Pseudomonas aeruginosa PAO1 23/14-053 (ST-309) assessed as MIC for cefpodoxime antibacterial activity at 4 mg/L by broth microdilution method
[3] = tested on: Pseudomonas aeruginosa PAO1; experiment: Inhibition of beta-lactamase activity in Pseudomonas aeruginosa PAO1 deltadacB assessed as MIC for cefpodoxime antibacterial activity at 16 mg/L by broth microdilution method
[4] = Inhibition beta lactamase PDC-1 in Pseudomonas aeruginosa PAO1 assessed as apparent inhibition constant using nitrocefin as substrate measured by 96 well microtitre plate; conditions: read-out: Ki(app)
[5] = tested on: Pseudomonas aeruginosa PAO1; experiment: Inhibition of beta-lactamase activity in Pseudomonas aeruginosa PAO1 deltaDdeltsDh2deltaDh3 assessed as MIC for cefpodoxime antibacterial activity at 16 mg/L by broth microdilution method
[6] = tested on: Pseudomonas aeruginosa PAO1; experiment: Inhibition of beta-lactamase activity in Pseudomonas aeruginosa PAO1 deltaC+pUCP-(PDC-1) assessed as MIC for cefpodoxime antibacterial activity at 16 mg/L by broth microdilution method
[7] = tested on: Pseudomonas aeruginosa PAO1; experiment: Inhibition of beta-lactamase activity in Pseudomonas aeruginosa PAO1 deltaDdeltsDh2deltaDh3 assessed as MIC for cefpodoxime antibacterial activity at 4 mg/L by broth microdilution method
[8] = tested on: Pseudomonas aeruginosa PAO1; experiment: Inhibition beta lactamase PDC-1 in Pseudomonas aeruginosa PAO1 assessed as ratio of kinact/K1 using nitrocefin as substrate measured by 96 well microtitre plate
[9] = tested on: Pseudomonas aeruginosa PAO1; experiment: Inhibition of beta-lactamase activity in Pseudomonas aeruginosa PAO1 assessed as MIC for cefpodoxime antibacterial activity at 4 mg/L by broth microdilution method
[10] = tested on: Pseudomonas aeruginosa PAO1; experiment: Inhibition of beta-lactamase activity in Pseudomonas aeruginosa PAO1 6/04-224 (ST-175) assessed as MIC for cefpodoxime antibacterial activity at 16 mg/L by broth microdilution method
[11] = tested on: Pseudomonas aeruginosa PAO1; experiment: Inhibition of beta-lactamase activity in Pseudomonas aeruginosa PAO1 deltadacBdeltadacC assessed as MIC for cefpodoxime antibacterial activity at 16 mg/L by broth microdilution method
[12] = tested on: Pseudomonas aeruginosa PAO1; experiment: Inhibition of beta-lactamase activity in Pseudomonas aeruginosa PAO1 PAHUAC-14 (ST-966) assessed as MIC for cefpodoxime antibacterial activity at 4 mg/L by broth microdilution method
[13] = tested on: Pseudomonas aeruginosa PAO1; experiment: Inhibition of beta-lactamase activity in Pseudomonas aeruginosa PAO1 deltaC assessed as MIC for cefpodoxime antibacterial activity at 4 mg/L by broth microdilution method
[14] = tested on: Pseudomonas aeruginosa PAO1; experiment: Inhibition of beta-lactamase activity in Pseudomonas aeruginosa PAO1 deltaC+pUCP-(PDC-1) assessed as MIC for cefpodoxime antibacterial activity at 4 mg/L by broth microdilution method
[15] = tested on: Pseudomonas aeruginosa PAO1; experiment: Inhibition of beta-lactamase activity in Pseudomonas aeruginosa PAO1 deltadacBdeltaampD assessed as MIC for cefpodoxime antibacterial activity at 16 mg/L by broth microdilution method
[16] = tested on: Pseudomonas aeruginosa PAO1; experiment: Inhibition of beta-lactamase activity in Pseudomonas aeruginosa PAO1 53/22-113 (ST-244) assessed as MIC for cefpodoxime antibacterial activity at 16 mg/L by broth microdilution method
[17] = tested on: Pseudomonas aeruginosa PAO1; experiment: Inhibition of beta-lactamase activity in Pseudomonas aeruginosa PAO1 17/14-017 (ST-235) assessed as MIC for cefpodoxime antibacterial activity at 4 mg/L by broth microdilution method
[18] = tested on: Pseudomonas aeruginosa PAO1; experiment: Inhibition beta lactamase PDC-1 in Pseudomonas aeruginosa PAO1 assessed as deacylation off-rate using nitrocefin as substrate at 30 mins measured by 96 well microtitre plate
[19] = tested on: Pseudomonas aeruginosa PAO1; experiment: Inhibition of beta lactamase PDC-1 in Pseudomonas aeruginosa PAO1 assessed as reduction in enzyme activity using nitrocefin as chromogenic substrate preincubated for 10 min using 96 well microtiter plate
[20] = tested on: Pseudomonas aeruginosa PAO1; experiment: Inhibition of beta-lactamase activity in Pseudomonas aeruginosa PAO1 PAHUAC-27(ST-22) assessed as MIC for cefpodoxime antibacterial activity at 16 mg/L by broth microdilution method
[21] = tested on: Pseudomonas aeruginosa PAO1; experiment: Inhibition beta lactamase PDC-1 in Pseudomonas aeruginosa PAO1 assessed as maximum rate of inactivation using nitrocefin as substrate measured by 96 well microtitre plate
[22] = tested on: Pseudomonas aeruginosa PAO1; experiment: Inhibition of beta-lactamase activity in Pseudomonas aeruginosa PAO1 deltaC+pUCP-(PDC-5) assessed as MIC for cefpodoxime antibacterial activity at 16 mg/L by broth microdilution method
[23] = tested on: Pseudomonas aeruginosa PAO1; experiment: Inhibition of beta-lactamase activity in Pseudomonas aeruginosa PAO1 deltaC+pUCP-(PDC-5) assessed as MIC for cefpodoxime antibacterial activity at 4 mg/L by broth microdilution method
[24] = tested on: Pseudomonas aeruginosa PAO1; experiment: Inhibition of beta-lactamase activity in Pseudomonas aeruginosa PAO1 deltadacB assessed as MIC for cefpodoxime antibacterial activity at 4 mg/L by broth microdilution method
[25] = tested on: Pseudomonas aeruginosa PAO1; experiment: Inhibition of beta-lactamase activity in Pseudomonas aeruginosa PAO1 deltaampD assessed as MIC for cefpodoxime antibacterial activity at 16 mg/L by broth microdilution method
[26] = tested on: Pseudomonas aeruginosa PAO1; experiment: Inhibition of beta-lactamase activity in Pseudomonas aeruginosa PAO1 deltaampD assessed as MIC for cefpodoxime antibacterial activity at 4 mg/L by broth microdilution method
[27] = tested on: Pseudomonas aeruginosa PAO1; experiment: Inhibition of beta-lactamase activity in Pseudomonas aeruginosa PAO1 PAHUAC-14 (ST-966) assessed as MIC for cefpodoxime antibacterial activity at 16 mg/L by broth microdilution method
[28] = tested on: Pseudomonas aeruginosa PAO1; experiment: Inhibition of beta-lactamase activity in Pseudomonas aeruginosa PAO1 23/14-053 (ST-309) assessed as MIC for cefpodoxime antibacterial activity at 16 mg/L by broth microdilution method
Pseudomonas aeruginosa = experiment: Inhibition of beta lactamase PDC-1 in Pseudomonas aeruginosa PAO1 for 30 min using MALDI TOF-MS analysis
[29] = tested on: Pseudomonas aeruginosa PAO1; experiment: Inhibition of beta-lactamase activity in Pseudomonas aeruginosa PAO1 6/04-224 (ST-175) assessed as MIC for cefpodoxime antibacterial activity at 4 mg/L by broth microdilution method
[30] = tested on: Pseudomonas aeruginosa PAO1; experiment: Inhibition of beta-lactamase activity in Pseudomonas aeruginosa PAO1 36/14-210 (ST-235) assessed as MIC for cefpodoxime antibacterial activity at 16 mg/L by broth microdilution method
[31] = tested on: Pseudomonas aeruginosa PAO1; experiment: Inhibition of beta-lactamase activity in Pseudomonas aeruginosa PAO1 deltadacBdeltadacC assessed as MIC for cefpodoxime antibacterial activity at 4 mg/L by broth microdilution method
[32] = tested on: Pseudomonas aeruginosa PAO1; experiment: Inhibition of beta-lactamase activity in Pseudomonas aeruginosa PAO1 17/14-017 (ST-235) assessed as MIC for cefpodoxime antibacterial activity at 16 mg/L by broth microdilution method
[33] = tested on: Pseudomonas aeruginosa PAO1; experiment: Inhibition of beta-lactamase activity in Pseudomonas aeruginosa PAO1 13/09-018 (ST-175) assessed as MIC for cefpodoxime antibacterial activity at 16 mg/L by broth microdilution method
[34] = tested on: Pseudomonas aeruginosa PAO1; experiment: Inhibition of beta-lactamase activity in Pseudomonas aeruginosa PAO1 deltadacBdeltapbpGdeltadacC assessed as MIC for cefpodoxime antibacterial activity at 4 mg/L by broth microdilution method
[35] = tested on: Pseudomonas aeruginosa PAO1; experiment: Inhibition of beta-lactamase activity in Pseudomonas aeruginosa PAO1 13/09-018 (ST-175) assessed as MIC for cefpodoxime antibacterial activity at 4 mg/L by broth microdilution method
[36] = tested on: Pseudomonas aeruginosa PAO1; experiment: Inhibition of beta-lactamase activity in Pseudomonas aeruginosa PAO1 deltadacBdeltaampD assessed as MIC for cefpodoxime antibacterial activity at 4 mg/L by broth microdilution method
[37] = tested on: Pseudomonas aeruginosa PAO1; experiment: Inhibition of beta-lactamase activity in Pseudomonas aeruginosa PAO1 deltaC assessed as MIC for cefpodoxime antibacterial activity at 16 mg/L by broth microdilution method
[38] = tested on: Pseudomonas aeruginosa PAO1; experiment: Inhibition of beta-lactamase activity in Pseudomonas aeruginosa PAO1 assessed as MIC for cefpodoxime antibacterial activity at 16 mg/L by broth microdilution method
[39] = tested on: Pseudomonas aeruginosa PAO1; experiment: Inhibition of beta-lactamase activity in Pseudomonas aeruginosa PAO1 53/22-113 (ST-244) assessed as MIC for cefpodoxime antibacterial activity at 4 mg/L by broth microdilution method
[40] = tested on: Pseudomonas aeruginosa PAO1; experiment: Inhibition of beta-lactamase activity in Pseudomonas aeruginosa PAO1 deltadacBdeltapbpGdeltadacC assessed as MIC for cefpodoxime antibacterial activity at 16 mg/L by broth microdilution method
[41] = tested on: Pseudomonas aeruginosa PAO1; experiment: Inhibition beta lactamase PDC-1 in Pseudomonas aeruginosa PAO1 assessed half life of nitrocefin substrate measured by 96 well microtitre plate assay
[42] = tested on: Pseudomonas aeruginosa PAO1; experiment: Inhibition of beta-lactamase activity in Pseudomonas aeruginosa PAO1 PAHUAC-27(ST-22) assessed as MIC for cefpodoxime antibacterial activity at 4 mg/L by broth microdilution method
[43] = tested on: Pseudomonas aeruginosa PAO1; experiment: Inhibition of beta-lactamase activity in Pseudomonas aeruginosa PAO1 36/14-210 (ST-235) assessed as MIC for cefpodoxime antibacterial activity at 4 mg/L by broth microdilution method
[44] = tested on: Pseudomonas aeruginosa PAO1; experiment: Inhibition beta lactamase PDC-1 in Pseudomonas aeruginosa PAO1 assessed as inactivation efficiency by measuring acylation rate (k2/K) using nitrocefin as substrate measured by 96 well microtitre plate

C[C@]1(COC(=O)Cc2ccc(O)c(O)c2)[C@H](C(=O)O)N2C(=O)/C(=C/c3ccc(F)cn3)[C@H]2S1(=O)=O
IC50 [1]: 0.0063 µM
MIC [2]: 2 µg/mL (≈ 3.95 µM)
MIC [3]: 0.5 µg/mL (≈ 0.987 µM)
Ki [4]: 0.11 µM
MIC [5]: 1 µg/mL (≈ 1.97 µM)
MIC [6]: 1 µg/mL (≈ 1.97 µM)
MIC [7]: 8 µg/mL (≈ 15.8 µM)
K [8]: 5 10^5/M/s
MIC [9]: 1 µg/mL (≈ 1.97 µM)
MIC [10]: 8 µg/mL (≈ 15.8 µM)
MIC [11]: 0.5 µg/mL (≈ 0.987 µM)
MIC [12]: 8 µg/mL (≈ 15.8 µM)
MIC [13]: 1 µg/mL (≈ 1.97 µM)
MIC [14]: 1 µg/mL (≈ 1.97 µM)
MIC [15]: 2 µg/mL (≈ 3.95 µM)
MIC [16]: 4 µg/mL (≈ 7.9 µM)
MIC [17]: 4 µg/mL (≈ 7.9 µM)
K [18]: 9 10^-2/min
inhibition [19]: inactive
MIC [20]: 2 µg/mL (≈ 3.95 µM)
Kinact [21]: 0.013 s⁻¹
MIC [22]: 2 µg/mL (≈ 3.95 µM)
MIC [23]: 2 µg/mL (≈ 3.95 µM)
MIC [24]: 1 µg/mL (≈ 1.97 µM)
MIC [25]: 1 µg/mL (≈ 1.97 µM)
MIC [26]: 8 µg/mL (≈ 15.8 µM)
MIC [27]: 2 µg/mL (≈ 3.95 µM)
MIC [28]: 2 µg/mL (≈ 3.95 µM)
inhibition (Pseudomonas aeruginosa): inactive
MIC [29]: 8 µg/mL (≈ 15.8 µM)
MIC [30]: 8 µg/mL (≈ 15.8 µM)
MIC [31]: 2 µg/mL (≈ 3.95 µM)
MIC [32]: 4 µg/mL (≈ 7.9 µM)
MIC [33]: 8 µg/mL (≈ 15.8 µM)
MIC [34]: 1 µg/mL (≈ 1.97 µM)
MIC [35]: 2 µg/mL (≈ 3.95 µM)
MIC [36]: 8 µg/mL (≈ 15.8 µM)
MIC [37]: 1 µg/mL (≈ 1.97 µM)
MIC [38]: 1 µg/mL (≈ 1.97 µM)
MIC [39]: 8 µg/mL (≈ 15.8 µM)
MIC [40]: 0.5 µg/mL (≈ 0.987 µM)
T1/2 [41]: 1.3 h
MIC [42]: 4 µg/mL (≈ 7.9 µM)
MIC [43]: 16 µg/mL (≈ 31.6 µM)
k2/K inactivation efficiency [44]: 6.8 M⁻¹ s⁻¹
